Data on twelve molecules can be found in patent US20100184189A1, “PROTEIN FOR THE CHEMOENZYMATIC PRODUCTION OF L-THREO-HYDROXYASPARTATE” (priority 2007, published 2010).

Data set [1] deals with T1, AsnO D241N (Streptomyces coelicolor, UniProt Q9Z4Z5, D241N/M1S). Nature of the data set: Activity of the AsnO D241N mutant: conversion of L-Asp, HPLC MS. The class given is biochemical. Details: made in house; host or cells: E. coli BL21 (DE3), pQTEV vector. The conditions noted are these: AsnO D241N 40 μM, 1.5 mM L-Asp, 1.0 mM (NH4)2Fe(SO4)2, 1.0 mM α-ketoglutarate, 16 h, 16° C. As to the method:
In order to evaluate the activity of the AsnO D241N mutant, the purified enzyme
The reaction is monitored by means of HPLC MS, by scanning the masses for L-Asp ([M+H]^+=[…]) and its hydroxylated form ([M+H]^+=150.04 Da). […] (FIG. 3a). In the control reaction, in which no enzyme is added, only L-Asp can be detected (FIG. 3b). Commercially available L-Asp (Bachem) as well as L-threo-3-hydroxyaspartate (Tocris Bioscience) are used as standards for the comparison of the retention times with HPLC.
Column: Hypercarb (Thermo Electron Corporation, pore diameters of 250 Å, particle size of 5 μM, 100% carbon). Mobile phases: A=20 mM aqueous nonafluoropentane acid, B=acetonitrile Gradient: 0-10% B in 12 min, flow rate 0.2 mL 1 min at 17.5° C. • FIG. 3a: negative control, no addition of enzyme (=AsnO D241N) • Only L-Asp is detected. • Retention time: 3.72 min; • Mber=134.045, Mgef=134.048 • FIG. 3b: incubation of L-Asp with AsnO D241N • After 16 h of incubation at 16° C. only • L-threo-3-hydroxyaspartate is detected. • Retention time 3.39 min; • Mber=150.040, Mgef=150.042

The target in data set [2] is T1, AsnO D241N. The conditions noted are these: AsnO D241N 40 μM, substrate L-Asp 50 μM to 2 mM.
Data set [3] has as its target T1, AsnO D241N. Nature of the data set: Substrate specificity of the mutated protein AsnO D241N, HPLC/MS. The conditions noted are these: amino acid 1.5 mM, 16 h at 16° C., (NH4)2Fe(SO4)2 1 mM, α-ketoglutarate 4 mM, catalase, HEPES pH 7.5. The class given is biochemical. Details: made in house; host or cells: E. coli BL21 (DE3), pQTEV vector. The method, then: The specificity of AsnO D241N for the conversion of L-Asp in L-threo-3-hydroxyaspartate is examined by incubating this mutated protein during 16 h at 16° C. with the amino acids (1.5 mM) listed in Table 1, the cofactor (NH4)2Fe(SO4)2 (1 mM), the cosubstrate α-ketoglutarate (4 mM) and 20 μg catalase in […] of a 50 mM HEPES buffer (pH 7.5). The catalase is added in order to quench reactive oxygen species and to prevent hereby the autoxidation of the enzyme. Controls are carried out in the absence of AsnO D241N.
The reaction is stopped by the addition of 50-200 μL of a 4% solution (V/V) of nonafluoropentane acid and subsequently the hydroxylation of the amino acid substrate to the respectively corresponding hydroxy amino acid is examined by means of reversed phase HPLC/MS. Column: Hypercarb (Thermo Electron Corporation, pore diameters of 250 Å, particle size of 5 μM, 100% carbon). Mobile phases: A=20 mM aqueous nonafluoropentane acid, B=acetonitrile. Gradient: 0-10% B in 12 min, flow rate 0.2 mL/min at 17.5° C.
The reaction product of the incubation of the respective amino acid with AsnO D241N is carried out by means of highest resolution MS with an API Qstar Pulsar I (Applied Biosystems).

Another data set concerns glutamate transporters. The conditions noted are these: literature statement; cited from earlier work.
Another data set relates to wild type AsnO. Nature of the data set: Kinetic parameters of the wild type AsnO for L-Asn (comparison). To be noted: wild type AsnO with L-Asn versus AsnO D241N with L-Asp. The class given is biochemical, Streptomyces coelicolor.
Substrate in data set [4]: NC(=O)C[C@H](N)C(=O)O
Described as above. The class given is biochemical, Streptomyces coelicolor. The conditions noted are these: other: wild type AsnO, substrate L-Asn.

T1 sequence (Q9Z4Z5 other isoform, or with tags, fused parts or gaps D241N): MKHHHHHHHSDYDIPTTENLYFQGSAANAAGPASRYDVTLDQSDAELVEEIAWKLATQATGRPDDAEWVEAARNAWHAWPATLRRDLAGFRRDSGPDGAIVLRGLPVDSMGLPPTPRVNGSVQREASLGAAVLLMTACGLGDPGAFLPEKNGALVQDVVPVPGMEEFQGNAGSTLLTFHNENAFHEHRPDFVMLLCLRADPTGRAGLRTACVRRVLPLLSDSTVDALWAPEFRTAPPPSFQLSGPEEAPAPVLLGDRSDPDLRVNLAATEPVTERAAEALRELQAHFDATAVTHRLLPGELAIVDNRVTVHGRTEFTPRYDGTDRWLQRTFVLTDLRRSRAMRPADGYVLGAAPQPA

Turning to `N[C@@H](CC(=O)O)C(=O)O` [L-Asp, L-aspartate], the “conversion of L-aspartate to L-threo-3-hydroxyaspartate” value at AsnO D241N [1] is on record as “Quantitative conversion”. Further, the “conversion of L-aspartate to L-threo-3-hydroxyaspartate” value at AsnO D241N [1] (listed as L-aspartate) is on record as “quantitative conversion”. For the same molecule, at AsnO D241N [2], the Km is 457 ± 31 µM and the kcat is 1.0 ± 0.1 min⁻¹. Further, the hydroxylation result at AsnO D241N [3] is listed as “yes”. For the molecule `CC(C)[C@H](N)C(=O)O` [L-Val], the hydroxylation entry at AsnO D241N [3] is recorded as “no”. On the same count and under the same terms, with `N[C@@H](CCC(=O)O)C(=O)O` [L-Glu, L-glutamate] the entry was “no”; with `N[C@@H](Cc1c[nH]c2ccccc12)C(=O)O` [L-Trp], “no”.

Turning to `N[C@H](C(=O)O)[C@H](O)C(=O)O` [L-threo-hydroxaspartate, L-threo-hydroxyaspartate], in the data set with glutamate transporters, the “inhibition of the function of the glutamate transporters” value was “inhibits the function of the glutamate transporters”. Turning to `N[C@H](CC(=O)O)C(=O)O` [D-Asp], the hydroxylation result at AsnO D241N [3] is given as “no”.

For the molecule `N[C@@H](Cc1ccccc1)C(=O)O` [L-Phe], the hydroxylation result at AsnO D241N [3] is given as “no”.

For `NC(=O)C[C@H](N)C(=O)O` [L-Asn, L-asparagine], the “kcat of wild type AsnO relative to AsnO D241N” value in the data set on wild type AsnO turned out to be 300 times. Moreover, the hydroxylation entry at AsnO D241N [3] is listed as “no”. `NC(C(=O)O)C(OCc1ccccc1)C(=O)O` [L-TBOA]: the “inhibition of the function of the glutamate transporters” value with glutamate transporters was “also comprises this inhibitor effect”. Regarding `NC(=O)CC[C@H](N)C(=O)O` [L-Gln], the hydroxylation result on AsnO D241N [3] was “no”. As for `CC[C@H](C)[C@H](N)C(=O)O` [L-Ile], the hydroxylation entry on AsnO D241N [3] is given as “no”.

B1: wild type AsnO (Streptomyces coelicolor A3(2)) (protein)
chain: MAANAAGPASRYDVTLDQSDAELVEEIAWKLATQATGRPDDAEWVEAARNAWHAWPATLRRDLAGFRRDSGPDGAIVLRGLPVDSMGLPPTPRVNGSVQREASLGAAVLLMTACGLGDPGAFLPEKNGALVQDVVPVPGMEEFQGNAGSTLLTFHNENAFHEHRPDFVMLLCLRADPTGRAGLRTACVRRVLPLLSDSTVDALWAPEFRTAPPPSFQLSGPEEAPAPVLLGDRSDPDLRVDLAATEPVTERAAEALRELQAHFDATAVTHRLLPGELAIVDNRVTVHGRTEFTPRYDGTDRWLQRTFVLTDLRRSRAMRPADGYVLGAAPQPA
For B1, in data set [4], the Km was 0.478 ± 0.067 mM and the catalytic constant (kcat) was determined as 298 ± 19 min⁻¹.

What is called Km is the substrate concentration at which the rate is half of its maximum. Broadly, the kcat is the number of substrate molecules converted per active site and unit of time at saturation.
